The test relates to biting midges (Culicoides furens). In words: Competitive field test: biting midges attracted to, killed by and collected in a CO2/octenol-baited heated electrical grid device, with or without test compound emitted. It is filed as in vivo. Conditions: for Midges collected: linalool 1 mg/hr; for Reduction of average biting midge kill counts: over three trials, linalool 1 mg/hr vs no linalool. How it is done: A device comprising a cylindrical housing essentially shaped like an opened one-gallon paint can, was equipped to release determinable amounts of one or more of CO2, octenol and test compound of this invention. The device housing was equipped (covered) at it its open end with an electrical grid operating at a temperature of approximately 110° F. (44° C.) for killing any midges attracted to the grid and thereby collecting the killed midges in the housing. With the device in operation, biting midges would be attracted by the scent of CO2 and/or octenol eminating from the interior of the housing and from the heat of the electrical grid. Then, with the additional introduction of test compound from the housing it was possible to determine the inhibiting effect of the test compound by determining the decrease in biting midges attracted and killed by the teat device. The test was conducted in a designated test area known for its abundance of biting midges along the Indian River in Vero Beach, Fla. at the U.S. Department of Agriculture test facility. Competitive tests were conducted over a twelve day period in September.. During Days 1 to 3 and 7 to 9 the test conditions of the test device were set to mimic a bird as the target, namely the device emitted 50 cc/min CO2 and no octenol, and during Days 4 to 6 and 10 to 12 the test conditions were set to mimic a mammal as the target, namely the device emitted 50 cc/min CO2 and 7 mg/hr octenol. In these competitive tests, the inhibiting compound was either not emitted (Days 1 to 6) or emitted (Days 7 to 12). The test then determined the number of midges killed and collected in the device without the test compound present, and the number of midges killed and collected in the device with the test compound present in order to determine the ability of the test compound to inibit the ability of the biting midges (Culicoides furens) to sense the […] target.

Molecules are shown by their SMILES.

For the molecule `C=CC(C)(O)CCC=C(C)C` (centres unmarked) [Linalool, linalool], the Midges collected amounted to 13 (Day 7, device mimicking a bird: CO2 50 cc/min, octenol 0 mg/hr); 5 (Day 8, device mimicking a bird: CO2 50 cc/min, octenol 0 mg/hr); 14 (Day 9, device mimicking a bird: CO2 50 cc/min, octenol 0 mg/hr); 29 (Day 10, device mimicking a mammal: CO2 50 cc/min, octenol 7 mg/hr); 81 (Day 11, device mimicking a mammal: CO2 50 cc/min, octenol 7 mg/hr); 364 (Day 12, device mimicking a mammal: CO2 50 cc/min, octenol 7 mg/hr). Moreover, the “Midges collected, total” value is, setting by setting: (Days 7-9 total, bird mimic: CO2 50 cc/min, no octenol, linalool 1 mg/hr (without linalool, days 1-3: total 176)) “Total 32”; (Days 10-12 total, mammal mimic: CO2 50 cc/min, octenol 7 mg/hr, linalool 1 mg/hr (without linalool, days 4-6: total 3410)) “Total 474”. For the same molecule, the “Midges collected, Avg./day” value (Days 10-12 average per day, mammal mimic: CO2 50 cc/min, octenol 7 mg/hr, linalool 1 mg/hr (without linalool: 1137)) is recorded as “Avg./day 158”. Moreover, the “Reduction of average biting midge kill counts” value reads like this: (device mimicking a bird (CO2 50 cc/min, no octenol)) 81%; (device mimicking a mammal (CO2 50 cc/min, octenol 7 mg/hr)) 86%.
